Data from patent publication US8569045B2, “Water toxicity detecting apparatus and method using sulfur particles” (University-Industry Cooperation Foundation, Kangwon …, priority 2007, dated 2013).

Test system: sulfur-oxidizing microbes
Experiment: Water toxicity detection with sulfur particles: electrical conductivity difference between inflow and outflow water, continuous reaction container
Format: cell-based, Thiobacillus
Conditions: 30 ppm test substance in the sample; EBCT 17 minute; 30° C.; ratio 0~1, about 1 = no toxicity, about 0 = high toxicity; 0.3 corresponds to issuing alarm
Method: When the microbes attached around the sulfur particles are grown in the reaction container 130 of which conditions such as temperature is constant, the sulfur is oxidized at a constant speed. The following formula expresses a reaction of generation of sulfate ions and hydrogen ions in the processes. S+H2O+1.5O2−>SO4^2−+2H^+ΔG°′=−587.1 kJ/reaction
Referring to the above formula, the sulfur particles react with the microbes, the inflow water, and the oxygen in the reaction container 130 to generate a predetermined amount of sulfate ions. In case of non-toxic outflow water, the amount of sulfate ions thereof is increased by a predetermined amount in comparison with the inflow water. Since a degree of alkali in a river water is generally low, pH of the outflow water is decreased in comparison with the inflow water.
However, in case of the inflow water containing toxic substances, a degree of activation of the microbes attached around the sulfur particles is lowered, so that the sulfur particles can not be oxidized. […]
The reaction container is filled with a 30 mL of sulfur particles. […] While an empty bed contact time (EBCT) of the inflow water is changed among 7.1, 8.3, 10.0, 12.5, and 16.7 minutes, the pH and electrical conductivity of the inflow water and the outflow water are measured. The EBCT is calculated by dividing a volume (30 mL) of the sulfur particles with a flow rate. […]

hexavalent chrome
ECDifference ratio: 0.3
